# Experimental data published in US11612581B2, “Cannabis and derivatives thereof for the treatment of pain and inflammation related with dental pulp and bone regeneration related to dental jaw bone defects” (CANNIBITE BVBA, priority 2017, dated 2023).
# Key:
# live bacterial cells = test: Anti-bacterial activity on inflamed dental pulp and dental plaque samples, Dojindo staining, Cytation 5 imaging; type: cell-based; conditions: incubated for 5 min
# Description: CDB Solutions: Two CBD solutions were prepared at concentrations of 12.5% and 25% by dissolving CDB (as powder, 98% purity) in methanol to obtain the desired concentration.
# Samples of inflamed dental pulp and dental plaque were collected from various subjects and incubated at 37° C. for 24 hours
# The samples where then treated with CBD solutions (12.5% and 25%) and incubated for 5 min. The samples were stained with Dojindo Rapid staining kit BS02 and evaluated under a Cytation 5 cell imaging microscope.
# [1] = test system: bacteria's from the nerve fiber; test: Bacteria on nerve fiber of pulp removed by pulpectomy, phase contrast microscopy without staining; type: cell-based
# Description: A patent diagnosed with acute pulpitis with severe signs of pain on cold irritants, percussion pain with x-ray deep caries radiolucent areas adjacent to the coronal pulp. Hyperemia is evident in the dental canal system when opening of the coronal part of pulp chamber.
# Pulpectomy (Removal of the entire pulp structure of a tooth, including the pulp tissue in the roots) was performed. The pulp was analyzed by phase contrast microscopy without staining.
# Following Pulpectomy a solution of 0.1 ml CBD (25%) was applied for 1 min.
# The same application was made with a Clorhexidine gluconate 2% solution used in endodontics to rinse canal system of the roots. A reduction of less than 20% in bacteria's was observed.
# mid-femoral fractures = conditions: rats with mid-femoral fractures, after eight weeks; cited from earlier work
# vestibular canal pulp = test: Extracted dental pulp of hemisected wisdom tooth treated with CBD solution (samples 3a, 3b); type: cell-based, human; conditions: sample 3b, 0.1 ml 25% solution, compared to 3a (Formalin)
# Description: A patient with chronic irreversible pulpitis element 28 wisdom tooth.
# The element was hemisected and dental pulp extracted from tooth.
# Sample 3a: Palatinal pulp was placed in Formalin.
# Sample 3b: 0.1 ml CDB (25%) solution was applied to the vestibular canal pulp.
# [2] = test system: pulp extract from the teeth; test: Pulp extract treated in-vitro and sent to pathology lab (samples 1a, 1b); type: cell-based, human; conditions: 0.1 ml of Clorhexidine Gluconate 2% (sample 1a) or CBD 25% (sample 1b)
# Description: The pulp extract from the teeth was treated in-vitro and was sent to pathology lab. Pulp was extracted and separated to two samples:
# Sample 1a was treated with 0.1 ml Clorhexidine Gluconate 2%.
# [3] = test system: chronic irreversible pulpitis combined with periapical lesion; test: Root canal treatment with CBD added to dressing and sealer, bone regeneration by X-ray (Patient 1); type: in vivo, human
# Description: Histology slides prepared after pulpectomy of a second mandibular molar diagnosed with chronic irreversible pulpitis combined with periapical lesion (FIG. 6).
# The treatment was performed with regular methods, in 2 steps 1 week rest. In the temporary dressing of the root canal medication Hydroxide Calcium was introduced 0.1 ml of CBD (25%) as well in the permanent sealer EWT Ken pulp sealer was introduced 0.5 ml of CBD (25%), pulp canal system sealed with sealer and gutta-percha.
# With standard treatment for periapical lesion, regeneration is usually noticed 6 months after treatment.
# [4] = relative to THC; cited from earlier work
SMILES,reduction in live bacterial cells as compared to an untreated sample (live bacterial cells; 12.5% CBD solution),reduction in live bacterial cells as compared to an untreated sample (live bacterial cells; 25% CBD solution),reduction of bacteria's from the nerve fiber ([1]; 0.1 ml CBD (25%) applied for 1 min following pulpectomy),bone fractures healing (mid-femoral fractures),inflammation and infection of pulp sample (vestibular canal pulp),pathology lab findings of treated pulp sample [2],bone regeneration on re-examination ([3]; 8 weeks after treatment),"bone regeneration in the apical region by X-ray ([3]; after 1 week, 0.1 ml CBD (25%) in Hydroxide Calcium dressing, 0.5 ml CBD (25%) in sealer)","reduction in bacteria's ([1]; Clorhexidine gluconate 2% solution, same application)",less active than THC [4]
"C=C(C)[C@@H]1CCC(C)=C[C@H]1c1c(O)cc(CCCCC)cc1O [CBD, cannabidiol]",> 75%,> 90%,total reduction,enhances bone fractures healing,no inflammation and no infection,"connective tissue, bone and no bacteria",total regeneration,bone regeneration was identified,–,–
N=C(NCCCCCCNC(=N)NC(=N)Nc1ccc(Cl)cc1)NC(=N)Nc1ccc(Cl)cc1.O=C(O)[C@H](O)[C@@H](O)[C@H](O)[C@H](O)CO.O=C(O)[C@H](O)[C@@H](O)[C@H](O)[C@H](O)CO [Clorhexidine gluconate],–,–,–,–,–,"debris, bacteria, and enamel cement",–,–,less than 20%,–
CCCCCc1cc(O)c2c(c1)OC(C)(C)[C@@H]1CC=C(C)C[C@@H]21 [Δ8-THC],–,–,–,–,–,–,–,–,–,~20%
